Laboratory results published in ChEMBL document CHEMBL5247586, “Discovery of fusidic acid derivatives as novel STING inhibitors for treatment of sepsis” (Eur J Med Chem, 2022).
Calls of active or inactive are those of the source. The calls are words filed in the database; no cut-off is given here.

Experiments:
Mus musculus [1] = test: (§1) Protective activity against LPS induced sepsis in BALB/c mouse model of acute liver injury assessed as improvement in swollen hepatocytes at 1.25 to 5 mg/kg, IG administered once a day for 3 days followed by LPS stimulation for 12 hrs starting from 2 hrs post last dose by hematoxylin and eosin staining based analysis; assay type: functional, organism-based; conditions: dose 1.25-5 mg/kg, time 86.0 hrs
[2] = Half life in Sprague-Dawley rat administered intragastrically; assay type: ADME; conditions: in vivo, po, route ig
[3] = Cmax in Sprague-Dawley rat administered intragastrically; assay type: ADME; design: route ig; conditions: in vivo, po
[4] = MRT (0 to t) in Sprague-Dawley rat administered intragastrically; assay type: ADME; conditions: in vivo, po, route ig
[5] = Tmax in Sprague-Dawley rat administered intragastrically; assay type: ADME; conditions: in vivo, po, route ig
[6] = molecular target: T1, Serine/threonine-protein kinase TBK1 (Mus musculus) (UniProt Q9WUN2); test: Inhibition of TBK1 phosphorylation in LPS-induced mouse RAW264.7 cells preincubated with compound for 2 hrs followed by LPS stimulation and measured after 6 hrs by Western blot analysis; assay type: cell-based; conditions: dose 0.5-2 µM, time 8.0 hrs
T1 sequence (whole entry): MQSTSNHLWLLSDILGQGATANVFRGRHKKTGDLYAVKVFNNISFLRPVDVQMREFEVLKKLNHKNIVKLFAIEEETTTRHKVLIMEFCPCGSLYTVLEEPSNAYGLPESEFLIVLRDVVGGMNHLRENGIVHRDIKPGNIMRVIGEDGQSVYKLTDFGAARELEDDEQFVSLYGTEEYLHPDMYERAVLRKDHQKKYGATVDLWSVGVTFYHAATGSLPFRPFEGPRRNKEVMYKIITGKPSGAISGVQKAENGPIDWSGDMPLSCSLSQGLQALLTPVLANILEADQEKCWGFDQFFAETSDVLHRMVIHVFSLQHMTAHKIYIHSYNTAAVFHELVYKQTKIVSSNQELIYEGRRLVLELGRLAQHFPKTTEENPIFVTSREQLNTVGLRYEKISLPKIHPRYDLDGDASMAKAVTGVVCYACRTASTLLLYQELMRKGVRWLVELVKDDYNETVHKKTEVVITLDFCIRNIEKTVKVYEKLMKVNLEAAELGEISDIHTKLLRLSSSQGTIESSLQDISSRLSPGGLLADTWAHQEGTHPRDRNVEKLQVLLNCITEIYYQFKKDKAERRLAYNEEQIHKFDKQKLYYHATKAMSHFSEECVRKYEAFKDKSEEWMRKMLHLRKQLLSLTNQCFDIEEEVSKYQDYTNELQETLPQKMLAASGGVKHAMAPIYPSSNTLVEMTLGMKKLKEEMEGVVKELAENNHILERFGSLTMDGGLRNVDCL

RAW264.7 [7] = test: Anti inflammatory activity in LPS-induced mouse RAW264.7 cells assessed as inhibition of NO production preincubated with compound for 2 hrs followed by LPS stimulation and measured after 24 hrs by griess reagent based assay; assay type: functional, cell-based
Mus musculus [8] = test: Anti-sepsis activity against BALB/c mouse model of LPS induced sepsis assessed as reduction in STING protein expression in liver at 1.25 to 5 mg/kg, IG administered once a day for 3 days followed by LPS stimulation for 12 hrs starting from 2 hrs post last dose by Western blot analysis; assay type: functional, organism-based; conditions: dose 1.25-5 mg/kg, time 86.0 hrs
RAW264.7 [9] = test: Inhibition of STING protein expression in LPS-induced mouse RAW264.7 cells preincubated with compound for 2 hrs followed by LPS stimulation and measured after 6 hrs by Western blot analysis; assay type: functional, cell-based; conditions: dose 0.5-2 µM, time 8.0 hrs
RAW264.7 [10] = test: Anti inflammatory activity in LPS-induced mouse RAW264.7 cells assessed as suppression of TNF-alpha levels at 0.5 to 2 uM preincubated with compound for 2 hrs followed by LPS stimulation for 6 hrs by ELISA method; assay type: functional, cell-based; conditions: dose 0.5-2 µM, time 8.0 hrs
Mus musculus [11] = test: as §1, with “of disorderly arranged liver tissue” for “in swollen hepatocytes”; assay type: functional, organism-based; conditions: dose 1.25-5 mg/kg, time 86.0 hrs
[12] = AUC(0 to infinity) in Sprague-Dawley rat administered intragastrically; assay type: ADME; design: route ig; conditions: in vivo, po
[13] = molecular target: T2, Stimulator of interferon genes protein (Mus musculus) (UniProt Q3TBT3); test: (§2) In vivo inhibition of STING in BALB/c mouse model of LPS induced sepsis assessed as inhibition of upregulation of phosphorylated TBK1 mRNA expression at 1.25 to 5 mg/kg, IG administered once a day for 3 days followed by LPS stimulation for 12 hrs starting from 2 hrs post last dose by Western blot analysis; assay type: functional, organism-based; conditions: dose 1.25-5 mg/kg, time 86.0 hrs
T2 sequence (whole entry): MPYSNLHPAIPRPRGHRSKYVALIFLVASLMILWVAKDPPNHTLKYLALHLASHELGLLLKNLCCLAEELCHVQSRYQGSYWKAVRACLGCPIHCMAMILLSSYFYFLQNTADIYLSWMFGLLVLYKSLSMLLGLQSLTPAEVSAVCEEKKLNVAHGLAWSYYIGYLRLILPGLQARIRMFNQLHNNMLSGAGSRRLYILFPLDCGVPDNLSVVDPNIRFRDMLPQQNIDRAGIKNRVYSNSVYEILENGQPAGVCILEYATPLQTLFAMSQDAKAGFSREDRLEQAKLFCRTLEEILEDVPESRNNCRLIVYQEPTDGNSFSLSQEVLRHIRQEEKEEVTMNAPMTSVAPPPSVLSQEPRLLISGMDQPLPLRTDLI

[14] = MRT(0 to infinity) in Sprague-Dawley rat administered intragastrically; assay type: ADME; conditions: in vivo, po, route ig
Mus musculus [15] = test: Protective activity against LPS induced sepsis in BALB/c mouse model of acute liver injury assessed as reduction in AST level in serum at 1.25 to 5 mg/kg, IG administered once a day for 3 days followed by LPS stimulation for 12 hrs starting from 2 hrs post last dose by ELISA; assay type: functional, organism-based; conditions: dose 1.25-5 mg/kg, time 86.0 hrs
RAW264.7 [16] = test: Anti inflammatory activity in LPS-induced mouse RAW264.7 cells assessed as inhibition of NO production at 5 uM preincubated with compound for 2 hrs followed by LPS stimulation and measured after 24 hrs by griess reagent based assay relative to control; assay type: functional; conditions: time 26 hrs
[17] = molecular target: T2, Stimulator of interferon genes protein (Mus musculus); test: as §2, with “p65 protein” for “TBK1 mRNA”; assay type: functional, organism-based; conditions: dose 1.25-5 mg/kg, time 86.0 hrs
RAW264.7 [18] = test: Anti inflammatory activity in LPS-induced mouse RAW264.7 cells assessed as suppression of IL-6 levels at 0.5 to 2 uM preincubated with compound for 2 hrs followed by LPS stimulation for 6 hrs by ELISA method; assay type: functional, cell-based; conditions: dose 0.5-2 µM, time 8.0 hrs
Mus musculus [19] = test: Antiinflammatory activity in BALB/c mouse model of LPS induced sepsis assessed as inhibition of IL-6 production at 1.25 to 5 mg/kg, IG administered once a day for 3 days followed by LPS stimulation for 12 hrs starting from 2 hrs post last dose by qRT-PCR analysis; assay type: functional, organism-based; conditions: dose 1.25-5 mg/kg, time 86.0 hrs
Mus musculus [20] = test: Anti-sepsis activity against BALB/c mouse model of LPS induced sepsis assessed as reduction in STING mRNA expression in liver at 1.25 to 5 mg/kg, IG administered once a day for 3 days followed by LPS stimulation for 12 hrs starting from 2 hrs post last dose by qRT-PCR analysis; assay type: functional, organism-based; conditions: dose 1.25-5 mg/kg, time 86.0 hrs
[21] = molecular target: T2, Stimulator of interferon genes protein (Mus musculus); test: as §2, with “IRF3 protein” for “TBK1 mRNA”; assay type: functional, organism-based; conditions: dose 1.25-5 mg/kg, time 86.0 hrs
Mus musculus [22] = test: as §1, with “blurred boundaries in liver tissue” for “swollen hepatocytes”; assay type: functional, organism-based; conditions: dose 1.25-5 mg/kg, time 86.0 hrs

C=CCONC(=O)CCSSCCC(=O)O[C@@H]1CC[C@@]2(C)[C@@H](CC[C@@]3(C)[C@H]2[C@H](O)C[C@H]2/C(=C(\CCC=C(C)C)C(=O)OCc4ccccc4)[C@@H](OC(C)=O)C[C@@]23C)[C@@H]1C
Activity (Mus musculus [1]): Active | half-life [2]: 1.11 h | Cmax [3]: 66.5 ng/mL | MRT last [4]: 0.99 h | Tmax [5]: 1 h | inhibition [6]: Dose-Dependent Effect | IC50 (RAW264.7 [7]): 1150 nM | Activity (Mus musculus [8]): Active | inhibition (RAW264.7 [9]): Dose-Dependent Effect | Activity (RAW264.7 [10]): Active | Activity (Mus musculus [11]): Active | AUC(0-inf) [12]: 136 ng·h/mL | inhibition [13]: Active | MRT inf [14]: 2.02 h | Activity (Mus musculus [15]): Active | inhibition at 5 µM (RAW264.7 [16]): 78.7% | inhibition [17]: Active | Activity (RAW264.7 [18]): Active | inhibition (Mus musculus [19]): Active | Activity (Mus musculus [20]): Active | inhibition [21]: Active | Activity (Mus musculus [22]): Active
